# Test results as given in patent US7144585B1, “Cilostazol preparation” (Otsuka Pharmaceutical Co., Ltd., priority 1999, dated 2006).
# Like-named read-outs stand apart in the source and are kept apart here.
# Columns and labels:
# [1] = Absorption test at upper and lower portions of the digestive tract (Test Example 8); assay type: in vivo; settings: rats; for AUC: read-out: AUCO-2 hr
# Method: (§1) Preparations of Examples 1, 2, 4 and 5 and Comparative Example 1 were directly administered in a large intestine loop of female rats (3 or 4 rats per group) in the amount of 100 mg/kg calculated on the basis of cilostazol (CLZ). Then, blood was collected with a lapse of time and cilostazol concentration in blood was measured. An average cilostazol concentration in blood is shown in Table 10 and pharmacokinetic parameters after administration are shown in Table 11.
# Absorption Test of Slightly Soluble Drug at Upper and Lower Portions of the Digestive Tract.
# In the same manner as in Test Example 1, preparations of Example 2 and Comparative Examples 1 and 5 were directly administered in the duodenum and the large intestine of rats. Then, blood was collected with a lapse of time and cilostazol concentration in blood was measured.
# [2] = Absorption test of cilostazol into the large intestine (Test Example 1); assay type: in vivo, rats
# Method: Absorption Test of Cilostazol into the Large Intestine
# as §1
# [3] = Cilostazol dissolution test, Paddle method, 0.3% SLS (Test Example 2); assay type: physicochemical
# Method: Preparations of Examples 1, 2 and 4 and Comparative Example 1 were weighed in the amount of 100 mg calculated on the basis of cilostazol and subjected to a dissolution test under the following conditions. To evaluate the dissolution rate, the dissolution percentage was compared after two minutes had passed since the beginning of the test.
# Conditions of Dissolution Test
# Dissolution test solution: 900 mL of aqueous 0.3% sodium lauryl sulfate solution
# Amount of sample: amount corresponding to 100 mg of cilostazol per vessel
# [4] = directly administered in the duodenum
# [5] = rat, blood, female rats, large intestine loop, 100 mg/kg as CLZ
"AUC ([1]; female, rat, blood, 100 mg/kg, directly administered in the large intestine)","Cmax ([1]; female, rat, blood, 100 mg/kg, directly administered in the large intestine, read-out: Cmax)","AUCO-2 hr [1, 4]","Cmax [1, 4]","concentration at 0 hr ([2]; rat, blood, other: directly administered in a large intestine loop, female rats, direct administration in large intestine loop, 100 mg/kg as CLZ, time after administration 0 hr)","concentration at 0.083 hr ([2]; rat, blood, other: directly administered in a large intestine loop, female rats, large intestine loop, 100 mg/kg as CLZ, 0.083 hr after administration)","concentration at 0.25 hr ([2]; rat, blood, other: directly administered in a large intestine loop, female rats, large intestine loop, 100 mg/kg as CLZ, 0.25 hr after administration)","concentration at 0.5 hr ([2]; rat, blood, other: directly administered in a large intestine loop, female rats, large intestine loop, 100 mg/kg as CLZ, 0.5 hr after administration)","concentration at 1 hr ([2]; rat, blood, other: directly administered in a large intestine loop, female rats, large intestine loop, 100 mg/kg as CLZ, 1.0 hr after administration)","concentration at 2 hr ([2]; rat, blood, other: directly administered in a large intestine loop, female rats, large intestine loop, 100 mg/kg as CLZ, 2.0 hr after administration)","Cmax [2, 5]","Tmax [2, 5]","AUC(0-t) ([2]; rat, blood, female rats, large intestine loop, 100 mg/kg as CLZ, read-out: AUC0–2 hr)","dissolution rate / dissolution percentage (in words) ([3]; 0.3% SLS, Paddle 75 rpm)","Dissolution percentage after 2 minutes ([3]; 900 mL aqueous 0.3% sodium lauryl sulfate, Paddle method 75 rpm, 100 mg cilostazol per vessel)","AUC ([1]; female, rat, blood, 100 mg/kg, directly administered in the duodenum)","Cmax ([1]; female, rat, blood, 100 mg/kg, directly administered in the duodenum, read-out: Cmax)",AUCO-2 hr ([1]; directly administered in the large intestine),SMILES,"blood concentration attained (in words) ([2]; rats, large intestine, within two hours after administration)"
236 ng·h/mL,168 ng/mL,3682 ng·h/mL,3002 ng/mL,,,,,,,,,,,,,,,"O=C1CCc2cc(OCCCCc3nnnn3C3CCCCC3)ccc2N1 [Comp. Example 5, cilostazol]",
,,,,0 ng/mL,15 ng/mL,26 ng/mL,51 ng/mL,100 ng/mL,170 ng/mL,170 ng/mL,2 h,186 ng·h/mL,low dissolution rate,22.7%,2590 ng·h/mL,1900 ng/mL,186 ng·h/mL,"O=C1CCc2cc(OCCCCc3nnnn3C3CCCCC3)ccc2N1 [Comp. Example 1, cilostazol]",sufficient blood concentration was not obtained
